Assay: recombinant UMI read abundance after kanamycin selection (control-corrected) (log10(CPM+1)); higher = more efficient recombination; extreme values may be limits of the assay; sequences stand for … in AGTGCAGAGAAAATCGGCCAGTTTTCTCTGCCTGCAGTCCGCATGCCGTGGGACCCCTTGGGTTCTAACCTGTTGCCTAGATTTATGCAGCGGACTGCCTTTCTCCCAAAGTGATAAACCGG…AGGTTGGTTTCACT; site = the 11-nt donor
Procedure, shortened: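 Two replicates each of selected and unselected plating were used in this pooled Escherichia coli screen of donor and donor-binding-loop pairs for the IS621 bridge recombinase. Selection was with IPTG (0.07 mM) and kanamycin. Counts of recombinant UMIs, amplified across the donor–target junction, were converted to CPM, averaged, scaled by control-derived factors and reported as log10(CPM+1).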
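Further: IS621 bridge recombinase in Escherichia coli cells against a fixed T5 target plasmid.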

| Sequence | recombinant UMI read abundance (log10) |
| --- | --- |
| GTAGCTACATGGACCGGTTTTCCCGGTAATCCGTATTTGAC (site GTAGTTACTGT) | 1.7 |
| GTAGGCACATGGACCGGTTTTCCCGGTAATCCGTATTTGTA (site GTAAGCACTTA) | 1.08 |
| GTAGGCACATGGACCGGTTTTCCCGGTAATCCGTATTTGTA (site GTACGCACTTA) | 0.279 |
| GTAGGCACATGGACCGGTTTTCCCGGTAATCCGTATTTGTA (site GTAGGCACTTA) | 1.29 |
| GTAGGCACATGGACCGGTTTTCCCGGTAATCCGTATTTGTA (site GTATGCACTTA) | 0.019 |
| GTAGGCTCATGGACCGGTTTTCCCGGTAATCCGTATTTGCA (site GTAGGCTCTTG) | 2.94 |
| GTAGGTACATGGACCGGTTTTCCCGGTAATCCGTATTTGAA (site GTAGGTACTAT) | 0 |
| GTAGGTACATGGACCGGTTTTCCCGGTAATCCGTATTTGAA (site GTAGGTACTCT) | 0.518 |
| GTAGGTACATGGACCGGTTTTCCCGGTAATCCGTATTTGAA (site GTAGGTACTGT) | 0.479 |
| GTAGGTACATGGACCGGTTTTCCCGGTAATCCGTATTTGAA (site GTAGGTACTTT) | 1.75 |
| GTAGGTACATGGACCGGTTTTCCCGGTAATCCGTATTTGCC (site GTAGGTACTGA) | 0.73 |
| GTAGGTACATGGACCGGTTTTCCCGGTAATCCGTATTTGCC (site GTAGGTACTGC) | 0.00606 |
| GTAGGTACATGGACCGGTTTTCCCGGTAATCCGTATTTGCC (site GTAGGTACTGG) | 0.956 |
| GTAGGTACATGGACCGGTTTTCCCGGTAATCCGTATTTGCC (site GTAGGTACTGT) | 0.441 |
| GTAGGTGCATGGACCGGTTTTCCCGGTAATCCGTATTTGAC (site GTAGGTACTGT) | 2.25 |
| GTAGGTGCATGGACCGGTTTTCCCGGTAATCCGTATTTGAC (site GTAGGTCCTGT) | 0.618 |
| GTAGGTGCATGGACCGGTTTTCCCGGTAATCCGTATTTGAC (site GTAGGTGCTGT) | 2.74 |
| GTAGGTGCATGGACCGGTTTTCCCGGTAATCCGTATTTGAC (site GTAGGTTCTGT) | 1.1 |
| GTAGTCGCATGGACCGGTTTTCCCGGTAATCCGTATTTGAG (site GTAGTCGCTCA) | 0.017 |

| Sequence | recombinant UMI read abundance (log10) |
| --- | --- |
| GTAGTCGCATGGACCGGTTTTCCCGGTAATCCGTATTTGAG (site GTAGTCGCTCC) | 0.924 |
| GTAGTCGCATGGACCGGTTTTCCCGGTAATCCGTATTTGAG (site GTAGTCGCTCG) | 0.73 |
| GTAGTCGCATGGACCGGTTTTCCCGGTAATCCGTATTTGAG (site GTAGTCGCTCT) | 1.5 |
| GTAGTCGCATGGACCGGTTTTCCCGGTAATCCGTATTTGCA (site GTAGTCGCTAG) | 0.762 |
| GTAGTCGCATGGACCGGTTTTCCCGGTAATCCGTATTTGCA (site GTAGTCGCTCG) | 1.85 |
| GTAGTCGCATGGACCGGTTTTCCCGGTAATCCGTATTTGCA (site GTAGTCGCTGG) | 0.873 |
| GTAGTCGCATGGACCGGTTTTCCCGGTAATCCGTATTTGCA (site GTAGTCGCTTG) | 2.68 |
| GTAGTCGCATGGACCGGTTTTCCCGGTAATCCGTATTTGCC (site GTAGTCGCTAG) | 1.64 |
| GTAGTCGCATGGACCGGTTTTCCCGGTAATCCGTATTTGCC (site GTAGTCGCTCG) | 0.819 |
| GTAGTCGCATGGACCGGTTTTCCCGGTAATCCGTATTTGCC (site GTAGTCGCTGG) | 2.93 |
| GTAGTCGCATGGACCGGTTTTCCCGGTAATCCGTATTTGCC (site GTAGTCGCTTG) | 2.39 |
| GTAGTCGCATGGACCGGTTTTCCCGGTAATCCGTATTTGTG (site GTAGTCGCTCA) | 2.18 |
| GTAGTCGCATGGACCGGTTTTCCCGGTAATCCGTATTTGTG (site GTAGTCGCTCC) | 0.438 |
| GTAGTCGCATGGACCGGTTTTCCCGGTAATCCGTATTTGTG (site GTAGTCGCTCG) | 1.42 |
| GTAGTCGCATGGACCGGTTTTCCCGGTAATCCGTATTTGTG (site GTAGTCGCTCT) | 1.05 |
| GTAGTCTCATGGACCGGTTTTCCCGGTAATCCGTATTTGCG (site GTAGTCACTCG) | 1.31 |
| GTAGTCTCATGGACCGGTTTTCCCGGTAATCCGTATTTGCG (site GTAGTCCCTCG) | 1.12 |
| GTAGTCTCATGGACCGGTTTTCCCGGTAATCCGTATTTGCG (site GTAGTCGCTCG) | 0.176 |
